Laboratory results from publication PMC9518264, “Design and synthesis of novel quinazolinone-based derivatives as EGFR inhibitors with antitumor activity” (Journal of Enzyme Inhibition and Medicinal Chemistry, 2022).

Legend:
[1] = tested on: caspase-3; assay: Caspase-3 activation (ELISA) in breast HS 578T cancer cell line; type: cell-based, human
Experimental: Apoptosis is triggered by the activation of caspases, particularly caspase-3, which is an […] caspase responsible for apoptosis. Therefore, the induction of apoptosis by compound 6d was examined by the evaluation of caspase-3 activation in breast HS 578T cancer cell line. The effect of erlotinib as well as untreated cell line was used as positive and negative control, respectively. […] . […]
incubated for 15 minutes in the dark at room temperature. FacsCalibur was used to assess cell fluorescence after incubation (BD Biosciences, USA). The results were represented using dot-plot graphs.
1.1.5. Caspase-3 enzyme assay
The level of the apoptotic marker caspase-3 was measured using Invitrogen ELISA Kit Catalog # KHO1091. The procedure of the used kit was performed according to the manufacturer’s instructions. Let all components to reach room temperature before use. Gently combine all liquid reagents prior to use. Add 100 μL of the standard diluent buffer to the zero standard wells. Add 100 μL of standards and controls or diluted samples to the appropriate microtiter wells. Incubate for 2 h at room temperature. Pipette 100 μL of Caspase-3 (Active) detection antibody solution into each well. […] Read the absorbance of each well at 450 nm. Read the plate within 2 h after adding the stop solution. […] Read the concentrations for unknown samples and controls from the standard curve.

[2] = tested on: UO-31; assay: cells; type: cell-based; conditions: Homo sapiens; UO-31; 10 μM; supplementary table 3a-g; read-out: growth inhibition % (GI %)
[3] = tested on: HOP-92; assay: cells; type: cell-based; conditions: Homo sapiens; HOP-92; 10 μM; supplementary table 3a-g; read-out: growth inhibition % (GI %)
[4] = tested on: K-562; assay: cells; type: cell-based; conditions: Homo sapiens, K562; K-562; 10 μM; supplementary table 3a-g; read-out: growth inhibition % (GI %)
[5] = tested on: panel of 60 tumour cell lines; assay: NCI 60 cell line antiproliferative screening (SRB), whole panel or subpanels (means, ranges, words); type: cell-based, human; conditions: Homo sapiens, 60 cell, mean over the cell line panel; 10 μM; supplementary table 3a-g; read-out: Mean inhibition
[6] = tested on: NCI-H226; assay: cells; type: cell-based; conditions: Homo sapiens; NCI-H226; 10 μM; supplementary table 3a-g; read-out: growth inhibition % (GI %)
[7] = tested on: SR; assay: cells; type: cell-based; conditions: Homo sapiens, 10 μM, supplementary table 3a-g, read-out: growth inhibition % (GI %)
[8] = tested on: RXF 393; assay: cells; type: cell-based; conditions: Homo sapiens; RXF 393; 10 μM; supplementary table 3a-g; read-out: growth inhibition % (GI %)

Compound	increase of caspase-3 level compared to negative control [1]	melting point	inhibition at 10 µM [2]	inhibition at 10 µM [3]	inhibition at 10 µM [4]	inhibition at 10 µM [5]	inhibition at 10 µM [6]	inhibition at 10 µM [7]	inhibition at 10 µM [8]
C#Cc1cccc(Nc2ncnc3cc(OCCOC)c(OCCOC)cc23)c1 [Erlotinib, erlotinib, reference compound]	8.78 fold	–	–	–	–	–	–	–	–
O=c1c2ccccc2nc(NN=Cc2ccc(Oc3ccc(Cl)cc3)cc2)n1-c1ccc(Cl)cc1 [3d, 2–(2-(4–(4-chlorophenoxy)benzylidene)hydrazinyl)-3–(4-chlorophenyl)quinazolin-4(3H)-one]	–	212 to 214 °C	< 15%	< 15%	< 15%	< 0%	< 15%	< 15%	–
O=c1c2ccccc2nc(NN=Cc2ccc(Oc3ccc(Br)cc3)cc2)n1-c1ccccc1 [3b, 2–(2-(4–(4-bromophenoxy)benzylidene)hydrazinyl)-3-phenylquinazolin-4(3H)-one]	–	198 to 200 °C	< 15%	–	< 15%	< 0%	–	< 15%	–
O=c1c2ccccc2nc(NN=Cc2ccc(N3CCOCC3)cc2)n1-c1ccccc1 [3f, 2–(2-(4-morpholinobenzylidene)hydrazinyl)-3-phenylquinazolin-4(3H)-one]	–	242 to 244 °C	< 15%	< 15%	< 15%	< 0%	< 15%	< 15%	< 15%
CN1CCN(c2ccc(C=NNc3nc4ccccc4c(=O)n3-c3ccccc3)cc2)CC1 [3g, 2–(2-(4–(4-methylpiperazin-1-yl)benzylidene)hydrazinyl)-3-phenylquinazolin-4(3H)-one]	–	208 to 210 °C	21%	16%	< 15%	< 0%	< 15%	< 15%	25.1%
COc1ccc(Oc2ccc(C=NNc3nc4ccccc4c(=O)n3-c3ccccc3)cc2)cc1 [3c, 2–(2-(4–(4-methoxyphenoxy)benzylidene)hydrazinyl)-3-phenylquinazolin-4(3H)-one]	–	185 to 188 °C	21.6%	< 15%	24.8%	1.6%	15.2%	16%	< 15%
O=c1c2ccccc2nc(NN=Cc2ccc(N3CCCCC3)cc2)n1-c1ccccc1 [3e, 3-phenyl-2–(2-(4-(piperidin-1-yl)benzylidene)hydrazinyl)quinazolin-4(3H)-one]	–	160 to 166 °C	< 15%	< 15%	< 15%	< 0%	< 15%	< 15%	< 15%
O=c1c2ccccc2nc(NN=Cc2ccc(Oc3ccc(Cl)cc3)cc2)n1-c1ccccc1 [3a, 2–(2-(4–(4-chlorophenoxy)benzylidene)hydrazinyl)-3-phenylquinazolin-4(3H)-one]	–	158 to 164 °C	< 15%	< 15%	< 15%	< 0%	< 15%	< 15%	< 15%
